Entries after “also recorded” stand apart in the source; their conditions may differ.
What was measured:
[1] = Metabolic stability in mouse liver microsomes; type: in vitro ADME
Procedure: Mouse liver microsomes (Xenotech) were diluted to 0.5 mg/mL in a solution containing 100 mM PBS buffer at 7.4 pH, an NADPH regenerating system (Promega), and test compounds at 20 μM. The mixture was incubated at 37° C. under gentle rotation for the indicated time points. The reaction was quenched by aliquoting 15 μL of solution into 60 μL ice-cold acetonitrile containing an internal standard. Test compounds were quantified by LC-MS using a system comprised of a Thermo Scientific Dionex Ultimate 3000 and a Bruker amaZon SL equipped with an electrospray ionization source controlled by a Bruker Hystar 3.2. Compounds were separated by injecting 20 μL of sample onto an Agilent Eclipse Plus C18 column (2.1×50 mm, […]) maintained at 20° C., with the flow rate set at 400 μL/min. Initial flow conditions were 60% solvent A (MilliQ H2O, 0.1% acetic acid), and 40% solvent B (HPLC-grade MeOH, 0.1% acetic acid). Solvent B was raised to 60% over 0.25 min and to 70% by 6.75 min. Solvent B was raised to 95% by 7 min and lowered back to 40% by 8 minutes; total run time was 9 min.

[2] = system: NCI-H69, NCI-H526, NCI-H4414 and A549 cells; test: Cell viability of four lung cancer cell lines; type: cell-based; conditions: dose series
Procedure: Neuroblastoma (SK-N-Be2; IMR-32; NLF; SK-N-AS) and lung cancer cell lines (NCI-H69; NCI-H526; NCI-H441-4) were grown in Advanced RPMI medium (Life Technologies) supplemented with 10% FBS (Gibco), 1% GlutaMAX (Gibco), and 1% Penicillin/Streptomycin. A549 cells (NSCLC) was grown in F-12K medium (Gibco) with 10% FBS (Gibco), and 1% Penicillin/Streptomycin. Cell cultures were incubated at 37° C. with 5% CO2. For chemical screening, cells were trypsinized, counted and seeded into white opaque 384-well plates (Perkin Elmer) at a density of 1000 cells/well and incubated overnight. […] Cells were treated for 72 hrs, after which cell viability was determined using CellTiterGlo® luminescence assay, following the manufacturer's instructions (Promega). […] Cell viability data were analyzed and charted using PRISM v7.0 software (GraphPad). The dose-response curves were used to generate an inhibitory constant (IC50) value, which was averaged across the two cell lines from each subtype (ie: SK-N-AS and NLF as MESN NBL subtype; IMR-32 and SK-N-Be2 as MycN^AMP subtype). The IC50 values for each subtype were used to evaluate subtype selectivity of each compound, and identify compounds with enhanced potency in MycN^AMP NBL.

MYCNA tumor xenografts = test: Tumor growth of MYCNA tumor xenografts; type: in vivo, mouse; conditions: daily i.p. 20 mg/kg, 21 days, versus vehicle-only control
Procedure: 6-week old male mice were purchased from Charles River Laboratories, and housed in Columbia University's animal control barrier facilities, and mice were allowed one week to acclimate to their new environment. To establish tumor xenografts, 10×10^6 SK-N-Be2 cells were suspended in a 200 μL volume of 50% matrigel slurry. […] Mice were kept on standard chow diet (Purina), and their cage dressing changed twice weekly. Animals were investigated regularly for any sign of discomfort. […] To create the stock solution of isopomiferin, 5 mg of isopomiferin (MicroSource) was dissolved into 50 μL dimethyl sulfoxide (DMSO). To this 450 μL of cyclodextrin solution was added dropwise. Cyclodextrin is dissolved as a 50% w/v solution in 40% EtOH. It is important to add the cyclodextrin slowly and with continual mixing to solubilize the compound. This solution was added to one volume of PBS and filter-sterilized. This solution was then diluted to achieve appropriate concentrations for a 200 μL volume administration at 10 mg/kg to each mouse. The solution was administered to animals via intraperitoneal injection (i.p.). […]
The ability of the compounds to inhibit growth of MYCNA tumor xenografts was evaluated by treating tumor bearing mice with daily i.p. injections of 20 mg/kg isopomiferin or pomiferin. […] MYCN abundance was evaluated mid-experiment, following 14 days of treatment.

CK2a1 = biological target: T1, CK2a1 (Homo sapiens, UniProt P68400); test: Cell-free biochemical CK2a1 kinase assay; conditions: for IC50: read-out: IC50 of CK2a kinase activity
T1 construct: purchased Reaction Biology Corporation (Malvern, Pa.)
Procedure: Cell-free biochemical kinase assays were performed at Reaction Biology Corporation (Malvern, Pa.). In brief, kinase substrates were diluted into reaction buffer containing 20 mM Hepes (pH 7.5), 10 mM MgCl2, 1 mM EGTA, 0.02% Brij35, 0.02 mg/ml BSA, 0.1 mM Na3VO4, 2 mM DTT, 1% DMSO. Purified protein (CK2a1, CK2a2, or mTOR) was added to the substrate solution and gently mixed. Test compounds were diluted from 10 mM DMSO stock solutions into the reaction buffer using an Echo550 acoustic dispenser, followed by incubation at RT for 20 min. 33P-ATP (10 μCi/μL) was added to reaction mixture, following incubation for 2 h at RT. Reactions were then spotted onto P81 ion exchange paper and kinase activity was detected by filter binding method.

TEAD4 transcript = test: RNASeq analysis of SK-N-Be2 cells, TEAD4 transcript; type: cell-based, human; conditions: 3 μM or 10 μM, 3 h and 6 h
Procedure: (§1) To uncover changes in gene expression that underpin responses to pomiferin and isopomiferin, RNASeq analysis of SK-N-Be2 cells was performed following treatment with the two active prenylated isoflavonoids as well as a null analog that served as a negative control. SK-N-Be2 cells were treated with either 3 μM or 10 μM of isopomiferin or pomiferin and sampled after 3 h and 6 h. […] By comparing the active to the null analogs, downstream analyses can focus on changes in gene expression associated with the MYCN signature.

MYCN transcript = test: RNASeq analysis of SK-N-Be2 cells, MYCN transcript; type: cell-based, human; conditions: 3 μM or 10 μM, 3 h and 6 h
Procedure: as §1

SK-N-Be2 cells = test: Cell viability assay (CellTiterGlo) in SK-N-Be2 cells; type: cell-based, human; conditions: SK-N-Be2 cells

T1 sequence (P68400 whole entry): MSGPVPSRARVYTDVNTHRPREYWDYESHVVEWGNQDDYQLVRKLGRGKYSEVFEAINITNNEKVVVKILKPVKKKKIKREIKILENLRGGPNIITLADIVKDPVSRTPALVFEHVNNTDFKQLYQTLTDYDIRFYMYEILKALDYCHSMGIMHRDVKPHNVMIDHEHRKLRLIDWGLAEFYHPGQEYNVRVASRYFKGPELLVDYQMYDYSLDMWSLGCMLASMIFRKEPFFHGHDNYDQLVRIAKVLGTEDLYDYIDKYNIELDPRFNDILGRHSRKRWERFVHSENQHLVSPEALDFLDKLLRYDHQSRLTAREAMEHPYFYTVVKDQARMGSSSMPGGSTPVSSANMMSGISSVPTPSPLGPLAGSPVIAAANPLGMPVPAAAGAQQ

Compound | compound remaining in mouse liver microsomes ([1]; 2 h incubation, 0.5 mg/mL microsomes) | sensitivity of MycN-expressing versus non-expressing lung cancer lines (cell viability) [2] | tumor growth (MYCNA tumor xenografts) | CK2a1 kinase activity (CK2a1) | IC50 (CK2a1) | TEAD4 transcript (RNASeq) (TEAD4 transcript) | MYCN transcript abundance (RNASeq) (MYCN transcript) | inhibition of SK-N-Be2 cell viability (rank or activity in words) (SK-N-Be2 cells; 72 hrs) | compound remaining in mouse liver microsomes ([1]; mouse, microsomes, 2 h) | IC20 (SK-N-Be2 cells; determined empirically)
CC(C)=CCc1c2c(c3occ(-c4ccc(O)c(O)c4)c(=O)c3c1O)C=CC(C)(C)O2 [pomiferin] | ~80% | MycN-driven cell lines were more sensitive to the compound | reduced rates of tumor proliferation that were significant from the vehicle-only control arm by day 19 | inhibiting both isoforms equally in a concentration-dependent manner | ~7 µM | suppressed both MYCN and TEAD4 transcript | suppressed MYCN transcript abundance | the most potent compound of the group; also recorded: the most potent inhibitor of viability |  | 
CC1(C)C=Cc2c(c3c(c4c(=O)c(-c5ccc(O)c(O)c5)coc24)OC(C)(C)CC3)O1 [isopomiferin] |  | the MycN-expressing lines were more sensitive to isopomiferin treatment | these differences were not significant |  | ~7 µM | did not affect TEAD4 | suppressed MYCN transcript abundance |  | ~50% | 10 µM
